Measurements as given in patent US5324747A, “N-substituted anilines, inhibitors of phospholipases A2” (Hoffmann-La Roche Inc., priority 1992, dated 1994).
pIC50: −log10 of the molar value.

Target: T1, HSF-PLA2 (Homo sapiens, UniProt P14555)
T1 construct: extracellular enzyme obtained from human synovial fluid (HSF-PLA2); from tissue; host or cells: pooled human synovial fluid, added at 0.1% (v/v)
T1 sequence (P14555 21-144): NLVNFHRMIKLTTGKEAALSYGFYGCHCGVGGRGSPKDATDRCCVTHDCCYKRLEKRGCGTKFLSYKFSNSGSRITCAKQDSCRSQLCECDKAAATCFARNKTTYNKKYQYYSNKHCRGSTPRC
Assay: Assay for Inhibition of HSF-PLA2 In Vitro
Assay type: biochemical
Details: (1 μM); read-out: Inhib of HSF-PLA2, % inhibition
Experimental: Assay for Inhibition of HSF-PLA2 In Vitro
The PLA2 used in this test is the extracellular enzyme obtained from human synovial fluid (HSF-PLA2).
The optimal conditions which were developed for the assay of HSF-PLA2 inhibitors are summarized as follows. […] The reaction was initiated by the addition of HSF-PLA2 and duplicate samples of the mixture were incubated in 13×100 mm glass tubes with shaking for 30 minutes at 37° C. […] The extraction of lipids from the stopped reaction mixture was conducted by the further additions of […] of chloroform and 1 ml of water with mixing. After centrifuging, the lower chloroform phase was transferred to smaller glass tubes and the solvent was evaporated to dryness with a nitrogen stream. The extracted lipid residue was redissolved in 50 μl of a solution containing carrier oleic acid (0.2 mg/ml) of chloroform-methanol [9 to 1, v/v]). The whole lipid extract was applied to a preactivated (30 minutes at 110° C.) silica gel-impregnated glass fiber thin layer chromatography sheet (ITLC type SG sheet from Gelman Sciences, Inc., Ann Arbor, Mich.) using hexane-acetic acid (100 to 1, v/v) as the developing solvent. This TLC system rapidly (6 minutes) resolved the enzymatically released product, ^14 C-oleic acid, from the unreacted ^14 C-phospholipid substrate. The unsaturated lipids were located on the chromatogram by a brief exposure to iodine vapor. […] A control incubation of substrate in the absence of HSF-PLA2 was performed in each experiment.

Compound | inhibition at 1 µM [%]
CCCCCCCCCCCCCCc1ccc(N(CC(=O)O)CC(=O)O)cc1 [Example 39, N-(carboxymethyl)-N-(4-tetradecylphenyl)glycine] | 67
CCCCCCCCCC(=O)Oc1cc(OC(=O)CCCCCCCCC)cc(N(CC(=O)O)CC(=O)O)c1 [Example 6u, N-(carboxymethyl)-N-[3,5-bis[(1-oxodecyl)oxy]phenyl]glycine] | 64
CCCCCCCCCCc1ccc(N(CC(=O)O)CC(=O)O)cc1 [Example 39d, N-(carboxymethyl)-N-(4-decylphenyl)glycine] | 39

Same assay, conditions: (5 μM); read-out: Inhib of HSF-PLA2, % inhibition

Compound | inhibition at 5 µM [%]
CCCCC/C=C\C/C=C\CCCCCCCC(=O)Nc1cccc(N(CC(=O)O)CC(=O)O)c1 [Example 51, N-(carboxymethyl)-N-[3-[(9Z,12Z)-(1-oxo-9,12-octadecadienyl)amino]phenyl]glycine] | 67
CCCCCCCC/C=C\CCCCCCCC(=O)Nc1cccc(N(CC(=O)O)CC(=O)O)c1 [Example 51] | 63

Same assay, conditions: (10 μM); read-out: Inhib of HSF-PLA2, % inhibition

Compound | inhibition at 10 µM [%]
CCCCCCCCCCNC(=O)c1cccc(N(CC(=O)O)CC(=O)O)c1 [Example 36d, N-(carboxymethyl)-N-[[(decylamino)carbonyl]phenyl]glycine] | 46
CCCCCCCCCCCCCCOc1cc(NCC(=O)O)cc(OCCCCCCCCCCCCCC)c1 [Example 127c, N-[3,5-bis(tetradecyloxy)phenyl]glycine] | 73
O=C(O)CN(CC(=O)O)c1cc(C(=O)NC23CC4CC(CC(C4)C2)C3)cc(C(=O)NC23CC4CC(CC(C4)C2)C3)c1 [Example 6s] | 30
CCCCCCCCCCCCCCCCCCCc1cc(CCCCCCCCCCCCCCCCCCC)cc(N(CC(=O)O)CC(=O)O)c1 [Example 6t, N-(carboxymethyl)-N-(3,5-dinonadecylphenyl)glycine] | 39
O=C(O)CN(CC(=O)O)c1cccc(OCCOc2ccc3ccccc3c2)c1 [Example 36g, N-(carboxymethyl)-N-[(3-(2-naphthalenyloxy)ethoxy]phenyl]glycine] | 19

Same assay, conditions: (20 μM); read-out: Inhib of HSF-PLA2, % inhibition

Compound | inhibition at 20 µM [%]
O=C(O)CCCCOc1cc(OCCCCC(=O)O)cc(N(CC(=O)O)CC(=O)O)c1 [Example 6i, N-(carboxymethyl)-N-[3,5-bis[(5-hydroxy-5-oxopentyl)oxy]phenyl]glycine] | 6
O=C(O)CN(CC(=O)O)c1cccc(C(=O)NC23CC4CC(CC(C4)C2)C3)c1 [Example 36h, N-(carboxymethyl)-N-[3-[(tricyclo[3.3.1.1/3,7/]dec-1-ylamino)carbonyl]phenyl]glycine] | 25
O=C(O)CN(CC(=O)O)c1ccccc1 [Example 39a, N-(carboxymethyl)-N-phenylglycine] | -10

Same assay, conditions: read-out: Inhib of HSF-PLA2 IC50

Compound | pIC50
CCCCCCCCCCCCCCCCCCOc1cc(OC(=O)C23CC4CC(CC(C4)C2)C3)cc(N(CC(=O)O)CC(=O)O)c1 [Example 58f, N-(Carboxymethyl)-N-[[3-(octadecyloxy)-5-(tricyclo[3.3.1.1/3,7]dec-1-ylcarbonyl)oxy]phenyl]glycine] | 6.52
CCCCCCCCCCCCCCCCCCOc1cc(OCCCCCCCCCCCCCCCCCC)cc(N(CC(=O)O)CC(=O)O)c1 [Example 6f, N-(carboxymethyl)-N-[3,5-bis(octadecyloxy)phenyl]glycine] | 6.30
CCCCCCCCCCCCCCCCCCOc1cc(NCC(=O)O)cc(OC(=O)C23CC4CC(CC(C4)C2)C3)c1 [Example 175, N-[[3-(Octadecyloxy)-5-(tricyclo[3.3.1.1/3.7/]dec-1-ylcarbonyl)oxy]phenyl]glycine] | 6.52
CCCCCCCCCCCCCCCCCCCc1cccc(N(CC(=O)O)CC(=O)O)c1 [Example 36f, N-(carboxymethyl)-N-(3-nonadecylphenyl)glycine] | 6.70
CCCCCCCCC(O)COc1cc(NCC(=O)O)cc(OCC(O)CCCCCCCC)c1 (stereo not drawn) [127 d] | 5.46
CCCCCCCCCCCCCCCCCCOc1cc(OCCCOc2cccnc2)cc(N(CC(=O)O)CC(=O)O)c1 [Example 58i] | 6.52
CCCCCCCCCCCCCCCCCCOc1cc(OC(C)=O)cc(N(CC(=O)O)CC(=O)O)c1 [Example 80] | 6.66
CCCCC/C=C\C/C=C\CCCCCCCCOc1cccc(N(CC(=O)O)CC(=O)O)c1 [Example 49, N-(carboxymethyl)-N-[3-[(9Z,12Z)-(9,12-octadecadienyl]oxy]phenyl]glycine] | 6.70
CCCCCCCCCC(=O)Nc1cc(NC(=O)CCCCCCCCC)cc(N(CC(=O)O)CC(=O)O)c1 [Example 21] | 5.42
O=C(O)CN(CC(=O)O)c1cc(OCCOc2cccc3ccccc23)cc(OCCOc2cccc3ccccc23)c1 [Example 6p, N-(carboxymethyl)-N-[3,5-bis[2-[1-naphthalenyloxy)]ethoxy]glycine] | 5.70
CCCCCCCCCCCCCCCCCCOc1cc(OCCCCCCCCCCC(=O)OC)cc(N(CC(=O)O)CC(=O)O)c1 [Example 58d, N-(carboxymethyl)-N-[3-(11-methoxy-11-oxoundecyloxy)-5-(octadecyloxy)phenyl]glycine] | 7.10
O=C(O)CN(CC(=O)O)c1cc(OCCCOc2cccc(-c3ccccc3)c2)cc(OCCCOc2cccc(-c3ccccc3)c2)c1 [Example 6m] | 6.24
CCCCCCCCCCCCCCCCCCNC(=O)c1cc(C(=O)NCCCCCCCCCCCCCCCCCC)cc(N(CC(=O)O)CC(=O)O)c1 [Example 6r, N-(carboxymethyl)-N-[3,5-bis[(octadecylamino)carbonyl]phenyl]glycine] | 6.19
CCCCCCCCCCc1cc(CCCCCCCCCC)cc(N(CC(=O)O)CC(=O)O)c1 [Example 29, N-(Carboxymethyl)-N-(3,5-didecylphenyl) glycine] | 5.82
CCCCCCCCCCCCCCCCCCOc1cc(OC(=O)C(c2ccccc2)c2ccccc2)cc(N(CC(=O)O)CC(=O)O)c1 [Example 58g] | 7.00
CCCCCCCCCCOc1ccc(N(CC(=O)O)CC(=O)O)cc1OCCCCCCCCCC [Example 119a, N-(carboxymethyl)-N-[3,4-bis(decyloxy)phenyl]glycine] | 6.80
O=C(O)CN(CC(=O)O)c1cc(OCCOc2ccc3ccccc3c2)cc(OCCOc2ccc3ccccc3c2)c1 [Example 6o, N-(carboxymethyl)-N-[3,5-bis[2-[2-naphthalenyloxy)]ethoxy]glycine] | 6.22
CCCCCCCC/C=C\CCCCCCCCOc1cccc(N(CC(=O)O)CC(=O)O)c1 [Example 49] | 6.52
O=C(O)CN(CC(=O)O)c1cc(OCCCOc2ccc(-c3ccccc3)cc2)cc(OCCCOc2ccc(-c3ccccc3)cc2)c1 [Example 6n] | 6.40
CCCCCCCCCCCCCCCCCCOc1cc(OCCCCCCCCCCC(=O)O)cc(N(CC(=O)O)CC(=O)O)c1 [Example 58e] | 6.70
